In ChEMBL document CHEMBL1201862, “PubChem BioAssay data set” (2004):
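Test compounds were applied to cells in 96-well plates for 48 hours at 5 doses. GI50: concentration for 50% inhibition of growth.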 Activity calls are given as the source filed them. No stated cut-off is given here; in the data, active = GI50 up to about 1.1 µM and inactive = higher.

Columns and labels:
Assay in all cases: NCI-60 cell line screen, 48 h
[1] = system: SK-OV-3
[2] = system: HOP-92
[3] = system: A549
[4] = system: KM12
[5] = system: HT-29
[6] = system: RXF 393
[7] = system: 786-0
[8] = system: SK-MEL-2
[9] = system: SNB-19
[10] = system: DU-145
[11] = system: OVCAR-5
[12] = system: SNB-75
[13] = system: EKVX
[14] = system: SF-539
[15] = system: HCC 2998
[16] = system: UACC-257
[17] = system: HCT-116
[18] = system: HOP-62
[19] = system: SF-268
[20] = system: HCT-15
[21] = system: UACC-62
[22] = system: IGROV-1
[23] = system: MDA-MB-231
[24] = system: SN12C
[25] = system: SK-MEL-28
[26] = system: TK-10
[27] = system: UO-31
[28] = system: ACHN
[29] = system: A498
[30] = system: SF-295
[31] = system: HL-60
[32] = system: LOX IMVI
[33] = system: Hs-578T
[34] = system: MOLT-4
[35] = system: CAKI-1
[36] = system: U-251
[37] = system: M14
[38] = system: SW-620
[39] = system: BT-549
[40] = system: K562
[41] = system: NCI-H522
[42] = system: OVCAR-3
[43] = system: CCRF-CEM
[44] = system: MDA-MB-435
[45] = system: NCI-H460
[46] = system: T47D
[47] = system: RPMI-8226
[48] = system: PC-3
[49] = system: NCI-H23
[50] = system: MCF7
[51] = system: MDA-N
[52] = system: NCI/ADR-RES
[53] = system: SK-MEL-5
[54] = system: COLO 205
[55] = system: OVCAR-4
[56] = system: Malme-3M
[57] = system: OVCAR-8
[58] = system: SR
[59] = system: NCI-H226

Compound: NNC(=O)Cc1cccnc1
- GI50 [1]: > 100 µM (inactive)
- GI50 [2]: > 100 µM (inactive)
- GI50 [3]: > 100 µM (inactive)
- GI50 [4]: > 100 µM (inactive)
- GI50 [5]: > 100 µM (inactive)
- GI50 [6]: > 100 µM (inactive)
- GI50 [7]: > 100 µM (inactive)
- GI50 [8]: > 100 µM (inactive)
- GI50 [9]: > 100 µM (inactive)
- GI50 [10]: > 100 µM (inactive)
- GI50 [11]: > 100 µM (inactive)
- GI50 [12]: > 100 µM (inactive)
- GI50 [13]: > 100 µM (inactive)
- GI50 [14]: > 100 µM (inactive)
- GI50 [15]: > 100 µM (inactive)
- GI50 [16]: > 100 µM (inactive)
- GI50 [17]: > 100 µM (inactive)
- GI50 [18]: > 100 µM (inactive)
- GI50 [19]: > 100 µM (inactive)
- GI50 [20]: > 100 µM
- GI50 [21]: > 100 µM (inactive)
- GI50 [22]: > 100 µM (inactive)
- GI50 [23]: > 100 µM (inactive)
- GI50 [24]: > 100 µM (inactive)
- GI50 [25]: > 100 µM (inactive)
- GI50 [26]: > 100 µM (inactive)
- GI50 [27]: > 100 µM (inactive)
- GI50 [28]: > 100 µM (inactive)
- GI50 [29]: > 100 µM (inactive)
- GI50 [30]: > 100 µM (inactive)
- GI50 [31]: > 100 µM (inactive)
- GI50 [32]: > 100 µM (inactive)
- GI50 [33]: > 100 µM (inactive)
- GI50 [34]: > 100 µM (inactive)
- GI50 [35]: > 100 µM (inactive)
- GI50 [36]: > 100 µM (inactive)
- GI50 [37]: > 100 µM (inactive)
- GI50 [38]: > 100 µM (inactive)
- GI50 [39]: > 100 µM (inactive)
- GI50 [40]: > 100 µM (inactive)
- GI50 [41]: > 100 µM (inactive)
- GI50 [42]: > 100 µM (inactive)
- GI50 [43]: > 100 µM (inactive)
- GI50 [44]: > 100 µM (inactive)
- GI50 [45]: > 100 µM (inactive)
- GI50 [46]: > 100 µM (inactive)
- GI50 [47]: > 100 µM (inactive)
- GI50 [48]: > 100 µM (inactive)
- GI50 [49]: > 100 µM (inactive)
- GI50 [50]: > 100 µM (inactive)
- GI50 [51]: > 100 µM (inactive)
- GI50 [52]: > 100 µM (inactive)
- GI50 [53]: > 100 µM (inactive)
- GI50 [54]: > 100 µM (inactive)
- GI50 [55]: > 100 µM (inactive)
- GI50 [56]: > 100 µM (inactive)
- GI50 [57]: > 100 µM (inactive)

Compound: CN1C2CC(=O)CC1[C@@H]1OC(c3ccccc3)O[C@H]21 (some centres not stated)
- GI50 [1]: > 100 µM (inactive)
- GI50 [3]: > 100 µM (inactive)
- GI50 [58]: > 100 µM (inactive)
- GI50 [4]: > 100 µM (inactive)
- GI50 [5]: > 100 µM (inactive)
- GI50 [6]: > 100 µM (inactive)
- GI50 [7]: > 100 µM (inactive)
- GI50 [8]: > 100 µM (inactive)
- GI50 [9]: > 100 µM (inactive)
- GI50 [10]: > 100 µM (inactive)
- GI50 [12]: > 100 µM (inactive)
- GI50 [13]: > 100 µM (inactive)
- GI50 [14]: > 100 µM (inactive)
- GI50 [15]: > 100 µM (inactive)
- GI50 [16]: > 100 µM (inactive)
- GI50 [17]: > 100 µM (inactive)
- GI50 [18]: > 100 µM (inactive)
- GI50 [19]: > 100 µM (inactive)
- GI50 [20]: > 100 µM
- GI50 [21]: > 100 µM (inactive)
- GI50 [22]: > 100 µM (inactive)
- GI50 [23]: > 100 µM (inactive)
- GI50 [24]: > 100 µM (inactive)
- GI50 [25]: > 100 µM (inactive)
- GI50 [26]: > 100 µM (inactive)
- GI50 [27]: > 100 µM (inactive)
- GI50 [30]: > 100 µM (inactive)
- GI50 [31]: > 100 µM (inactive)
- GI50 [32]: > 100 µM (inactive)
- GI50 [33]: > 100 µM (inactive)
- GI50 [34]: > 100 µM (inactive)
- GI50 [35]: > 100 µM (inactive)
- GI50 [36]: > 100 µM (inactive)
- GI50 [37]: > 100 µM (inactive)
- GI50 [38]: > 100 µM (inactive)
- GI50 [39]: > 100 µM (inactive)
- GI50 [40]: > 100 µM (inactive)
- GI50 [41]: > 100 µM (inactive)
- GI50 [42]: > 100 µM (inactive)
- GI50 [43]: > 100 µM (inactive)
- GI50 [44]: > 100 µM (inactive)
- GI50 [45]: > 100 µM (inactive)
- GI50 [46]: > 100 µM (inactive)
- GI50 [47]: > 100 µM (inactive)
- GI50 [48]: > 100 µM (inactive)
- GI50 [49]: > 100 µM (inactive)
- GI50 [50]: > 100 µM (inactive)
- GI50 [51]: > 100 µM (inactive)
- GI50 [52]: > 100 µM (inactive)
- GI50 [53]: > 100 µM (inactive)
- GI50 [59]: > 100 µM (inactive)
- GI50 [54]: > 100 µM (inactive)
- GI50 [55]: > 100 µM (inactive)
- GI50 [56]: > 100 µM (inactive)
- GI50 [57]: > 100 µM (inactive)
